Entries after “also recorded” stand apart in the source; their conditions may differ.
How the values were obtained:
[1] = test system: T47D cell membranes; assay: Phosphorylation of IGFBP-3 by T47D cell membranes; format: biochemical, human; conditions: cystamine 20 μM (10 and 20 μM in FIG. 2C), MDC 200 μM, ROCK2 inhibitor 2 and 5 μM (FIG. 2B, 2C)
Description: (§1) Polystyrene tube were coated with streptavidin and blocked with bovine serum albumin, washed in saline and stored at −20° C. until used. Biotinylated IGFBP-3 (500 ng) was added in streptavidin-coated tubes for 2 h on ice. At the end of incubation, excess, unbound IGFBP-3 was removed. Tubes were placed on ice and phosphorylation reaction mixture containing 20 mM Tris buffered saline pH 7.5, 10 mM Mg/ATP, 60 μCi/ml ^32P-ATP was added. Reaction was initiated by the addition of membrane fraction and allowed to proceed for 30 min at 30° C. Reaction was stopped by addition of SDS-PAGE sample buffer, boiled for 7–10 min and analyzed on 11% gel. Subsequently gels were dried and processed for autoradiography. In some cases 2 μU of pure TG2 (Sigma-Aldrich, MO) or histidine-tagged full length human TG2 expressed using baculovirus expression system in insect cells and purified by Ni(II)-nitroacetate agarose chromatography was used to phosphorylate IGFBP-3 in presence or absence of TG2 specific inhibitors. In experiments where cell monolayers were used to phosphorylate IGFBP-3, cells were grown in 24-well culture plate to near confluence and washed with PBS to remove residual media and serum. Phosphorylation was then performed in 100 pI reaction mixture as above, containing 1 μg IGFBP-3 for 10 min at 37° C. At the end of incubation, reaction mixture was aspirated, reaction was stopped by addition of sample buffer and analyzed on 11% gel. In some experiments, cell monolayer were treated with TG2 inhibitor for 30 min prior to the phosphorylation reaction.
We assessed the effect of the TG2 and ROCK2 inhibitors on phosphorylation of IGFBP-3 by cell monolayers. We have previously shown that intact washed cells were able to phosphorylate IGFBP-3 immobilized on polystyrene tubes (Mishra and Murphy, 2003). T47D cell monolayers were incubated for 30 minutes in the presence of various concentrations of cystamine, an inhibitor of TG2. The washed cell monolayers were incubated with IGFBP-3 in the presence of ^32P-ATP for 10 minutes at 37° C. After termination of the incubation, the IGFBP-3 was analyzed by SDS-PAGE and autoradiography (FIG. 2A). […] Similar experiments were undertaken utilizing membrane preparations from both T47D and MCF-7 cells. As reported previously both T47D and MCF-7 cells were able to phosphorylate IGFBP-3. This process was inhibited by cystamine and MDC in both cells lines (FIG. 2B). DMSO the vehicle in which MDC was dissolved had no effect. Since TG2 has been found in association with ROCK2, a Rho-kinase (Singh et al., 2001, EMBO J., 20:2413–2423), and ROCK2 was present in the affinity purified cell membrane fractions, we investigated the effect of the ROCK2 inhibitor, R (+)trans-N-(4-pyridyl)-4-(1aminoethyl)-cyclohexanecarboxamide dihydrochloride. […]

[2] = test system: MCF-7 cell membranes; assay: Phosphorylation of IGFBP-3 by MCF-7 cell membranes; format: biochemical, human; conditions: cystamine 20 μM, MDC 200 μM (FIG. 2B)
Description: as §1, with “In experiments where cell monolayers were used to phosphorylate IGFBP-3, cells were grown in 24-well culture plate to near confluence and washed with PBS to remove residual media and serum. Phosphorylation was then performed in 100 pI reaction mixture as above, containing 1 μg IGFBP-3 for 10 min at 37° C.” left out, “In some experiments, cell monolayer were treated with TG2 inhibitor for 30 min prior to the phosphorylation reaction.” left out
We assessed the effect of the TG2 and ROCK2 inhibitors on phosphorylation of IGFBP-3 by cell monolayers. […] After termination of the incubation, the IGFBP-3 was analyzed by SDS-PAGE and autoradiography (FIG. 2A). […]

[3] = molecular target: T1, guinea pig liver TG2 (UniProt P08587); assay: IGFBP-3 kinase activity of purified guinea pig liver TG2; format: biochemical; conditions: cystamine 20 μM, MDC 200 μM (FIG. 4A)
T1 construct: Both TG2 purified from guinea pig liver and recombinant human TG2 expressed in insect cells were able to phosphorylate IGFBP-3; purchased Sigma-Aldrich, MO; host or cells: guinea pig liver (tissue-purified)
T1 sequence (P08587 1-690): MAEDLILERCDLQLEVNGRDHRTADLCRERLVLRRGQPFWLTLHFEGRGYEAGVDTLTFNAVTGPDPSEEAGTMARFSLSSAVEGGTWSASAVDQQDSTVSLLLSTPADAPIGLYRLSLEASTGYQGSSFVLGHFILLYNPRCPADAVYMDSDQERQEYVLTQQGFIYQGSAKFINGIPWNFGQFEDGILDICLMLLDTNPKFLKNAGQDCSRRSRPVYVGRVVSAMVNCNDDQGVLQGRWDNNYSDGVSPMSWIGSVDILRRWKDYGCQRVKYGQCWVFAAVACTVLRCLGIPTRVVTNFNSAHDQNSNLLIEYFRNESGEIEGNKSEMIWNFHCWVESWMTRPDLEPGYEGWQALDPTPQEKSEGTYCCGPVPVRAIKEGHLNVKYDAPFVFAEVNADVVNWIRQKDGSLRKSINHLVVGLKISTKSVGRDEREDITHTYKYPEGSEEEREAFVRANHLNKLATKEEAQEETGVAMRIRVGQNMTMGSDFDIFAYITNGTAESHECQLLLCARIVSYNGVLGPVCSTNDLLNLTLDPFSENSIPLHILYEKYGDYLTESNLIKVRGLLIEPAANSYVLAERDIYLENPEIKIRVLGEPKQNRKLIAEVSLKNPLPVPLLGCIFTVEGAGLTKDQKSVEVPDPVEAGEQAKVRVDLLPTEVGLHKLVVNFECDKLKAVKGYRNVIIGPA
Description: as §1, with “Phosphorylation was then performed in 100 pI reaction mixture as above, containing 1 μg IGFBP-3 for 10 min at 37° C.” left out, “In some experiments, cell monolayer were treated with TG2 inhibitor for 30 min prior to the phosphorylation reaction.” left out

[4] = molecular target: T2, TG2 (Homo sapiens, UniProt P21980); assay: IGFBP-3 kinase activity of recombinant human TG2; format: biochemical; parameters: histidine-tagged full length human TG2 expressed using baculovirus expression system in insect cells; histidine tag; made in house; host or cells: insect cells (baculovirus expression system); conditions: for effect on phosphorylation of IGFBP-3 by human recombinant TG2: cystamine 20 μM, MDC 200 μM (FIG. 4A)
T2 sequence (P21980 1-687): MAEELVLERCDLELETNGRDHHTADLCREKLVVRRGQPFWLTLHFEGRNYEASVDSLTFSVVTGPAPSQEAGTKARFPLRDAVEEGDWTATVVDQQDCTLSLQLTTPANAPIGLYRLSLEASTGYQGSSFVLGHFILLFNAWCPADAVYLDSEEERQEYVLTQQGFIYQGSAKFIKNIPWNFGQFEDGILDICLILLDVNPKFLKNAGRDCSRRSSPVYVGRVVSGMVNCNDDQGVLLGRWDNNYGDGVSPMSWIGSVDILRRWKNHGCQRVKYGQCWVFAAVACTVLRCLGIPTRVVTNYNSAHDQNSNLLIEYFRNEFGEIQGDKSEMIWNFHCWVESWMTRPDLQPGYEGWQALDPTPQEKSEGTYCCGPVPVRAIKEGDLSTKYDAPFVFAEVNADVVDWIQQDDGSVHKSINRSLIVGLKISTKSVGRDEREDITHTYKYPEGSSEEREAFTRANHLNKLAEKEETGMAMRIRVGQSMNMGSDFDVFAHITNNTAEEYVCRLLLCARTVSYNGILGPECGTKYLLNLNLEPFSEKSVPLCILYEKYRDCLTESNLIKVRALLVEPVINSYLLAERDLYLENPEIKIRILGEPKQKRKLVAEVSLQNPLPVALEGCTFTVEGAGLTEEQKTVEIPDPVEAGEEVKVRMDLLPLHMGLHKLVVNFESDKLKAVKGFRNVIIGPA
Description: as §1
Purified guinea pig liver TG2 and human recombinant TG2 both were able to phosphorylate IGFBP-3 (FIG. 4A). This process was inhibited cystamine and MDC. The related binding protein IGFBP-5 was also phosphorylated by TG2 whereas IGFBP-1 was not phosphorylated by TG2 (FIG. 4B). […] Fibronectin, another reported substrate for TG2 (Akimov and Belkin, 2001, J. Cell Sci., 114:2989–3000), was not phosphorylated by this enzyme under the conditions we used to phosphorylate IGFBP-3 (FIG. 4B). […]

[5] = test system: T47D cell monolayers; assay: Phosphorylation of IGFBP-3 by T47D cell monolayers; format: cell-based, human
Description: as §1
We assessed the effect of the TG2 and ROCK2 inhibitors on phosphorylation of IGFBP-3 by cell monolayers. We have previously shown that intact washed cells were able to phosphorylate IGFBP-3 immobilized on polystyrene tubes (Mishra and Murphy, 2003). T47D cell monolayers were incubated for 30 minutes in the presence of various concentrations of cystamine, an inhibitor of TG2. […] After termination of the incubation, the IGFBP-3 was analyzed by SDS-PAGE and autoradiography (FIG. 2A). […]

[6] = molecular target: T2, TG2; assay: IGFBP-3 kinase activity of anti-TG2 immunoprecipitates from solubilized membranes; format: biochemical; parameters: endogenous in cells; host or cells: T47D or MCF-7 cell membranes (anti-TG2 immunoprecipitate on protein A-agarose); conditions: cystamine 20 μM, ROCK2 inhibitor 5 μM (FIG. 3C)
Description: To 200 μl of solubilized membranes from T47D of MCF-7 cells, 10 μl of anti-TG2 goat polyclonal antiserum (Upstate Biotechnology, Lake Placid, N.Y.) and incubated for 1 h at 4° C. 20 μl of protein A-agarose (Pierce) was added and further incubated on a rotating device overnight at 4° C. At the end of incubation the pellet was washed four times in ice cold PBS. The supernatant was discarded and the pellet was resuspended in 50 μl of kinase buffer. 10 μl of the resuspended sample was used for phosphorylation of 500 ng of IGFBP-3. The samples were analyzed by SDS-PAGE, autoradiography and immunoblotting with TG2 antiserum.
We next examined the effect of TG2 and ROCK2 antisera on IGFBP-3 kinase activity present in cell membrane preparations. Antiserum against TG2 but not ROCK2 antiserum was able to immunodeplete IGFBP-3 kinase activity from membrane preparations (FIG. 3A). When the immunoprecipitates were analyzed for kinase activity, the precipitates obtained with TG2 antiserum but not those obtained with ROCK2 antiserum had kinase activity. Furthermore, the IGFBP-3 kinase activity present in the immunoprecipitates was inhibited by cystamine but not by the ROCK2 inhibitor.

[7] = molecular target: T2, TG2; assay: Cross-linking activity of recombinant TG2 (polymerization of IGFBP-3); format: biochemical; parameters: histidine-tagged full length human TG2 expressed using baculovirus expression system in insect cells; histidine tag; made in house; host or cells: insect cells (baculovirus expression system); conditions: recombinant TG2, increasing calcium concentration (FIG. 4C)
[8] = T47D cell monolayers pre-incubated 30 minutes with inhibitor, 32P-ATP, 10 minutes at 37° C., autoradiography (FIG. 2A)

Row | SMILES | effect on phosphorylation of IGFBP-3 by T47D cell membranes [1] | effect on phosphorylation of IGFBP-3 by T47D cell membranes ([1]; listed as monodansyl cadaverine) | effect on phosphorylation of IGFBP-3 by MCF-7 cell membranes [2] | effect on phosphorylation of IGFBP-3 by purified guinea pig liver TG2 [3] | effect on phosphorylation of IGFBP-3 by human recombinant TG2 [4] | concentration at which complete inhibition of IGFBP-3 phosphorylation was apparent [5, 8] [µM] | concentration at which inhibition of IGFBP-3 phosphorylation was seen (as little as) [5, 8] [µM] | effect on IGFBP-3 kinase activity present in anti-TG2 immunoprecipitates [6] | effect on IGFBP-3 kinase activity of breast cancer cell monolayers ([5]; breast cancer cell monolayers (FIG. 2A)) | effect of increasing calcium concentration on kinase activity of TG2 ([4]; recombinant TG2, increasing calcium concentration (FIG. 4C)) | effect of increasing calcium concentration on polymerization of IGFBP-3 (cross-linking activity of TG2) [7]
1 | CN(C)c1cccc2c(S(=O)(=O)NCCCCCN)cccc12 [MDC, monodansyl cadaverine] | inhibited | abolished | inhibited | inhibited | inhibited | – | – | – | – | – | –
2 | NCCSSCCN [cystamine] | inhibited; also recorded: abolished | – | inhibited | inhibited | inhibited | 50 | 20 | inhibited | – | – | –
3 | C[C@@H](N)[C@H]1CC[C@H](C(=O)Nc2ccncc2)CC1.Cl.Cl (relative stereo) [ROCK2 inhibitor, R (+)trans-N-(4-pyridyl)-4-(1aminoethyl)-cyclohexanecarboxamide dihydrochloride] | no effect | – | – | – | – | – | – | not | no effect | – | –
4 | [Ca+2] [calcium] | – | – | – | – | – | – | – | – | – | decrease in the kinase activity; also recorded: inhibited in a concentration dependent fashion | increase in polymerization

Reference: US7090971B2, “Transglutaminase has intrinsic kinase activity” (priority 2004, dated 2006)
